How the values were obtained:
Type in all cases: in vivo, mice
LM2 cells [1] = test: Lung colonization (priming) assay, tail vein injection of TGFβ-pretreated LM2 cells
Procedure: (§1) FIGS. 3A-D. (A) LM2 cells and a clinically-derived pleural effusion sample (CN34.2A) were pretreated with TGFβ for 6 h. LM2 (2×10^5) and CN34.2A (4×10^5) cells were injected into the lateral tail vein and lung colonization was analyzed by in vivo bioluminescence imaging. (B) Bar graph represents 24 h time point measurements of the normalized photon flux from animals injected with either LM2 or CN34.2A cells. (C) Bone metastasis assays were performed by intracardiac injection of LM2 or BoM-1833 cells (3×10^4). Samples were pretreated with […] of TGFβ for 6 h and compared to an untreated control. […]
(§2) All animal work was done in accordance with a protocol approved by the MSKCC Institutional Animal Care and Use Committee. […] Seven days after mastectomies, lung metastases were monitored and quantified using non-invasive bioluminescence as previously described (Minn et al., 2005).
(§3) For primary tumor analysis, 5×10^5 viable single cells were re-suspended in a 1:1 mixture of PBS and growth-factor-reduced Matrigel (BD Biosciences) and injected orthotopically into both mammary gland number four in a total volume of 100 μL as previously described (Minn et al., 2005). Primary tumor growth rates were analyzed by measuring tumour length (L) and width (W), and calculating tumor volume based on the formula […]. […] Lung metastatic progression was again monitored and quantified using bioluminescence. […]

CN34.2A cells = test: Lung colonization (priming) assay, tail vein injection of TGFβ-pretreated CN34.2A cells; settings: CN34.2A cells pre-treated with TGFβ 6 h; 24 h time point, normalized photon flux
Procedure: as §1, §2, §3

LM2 cells [2] = test: Bone metastasis assay, intracardiac injection of TGFβ-pretreated LM2 cells; settings: LM2 cells pre-treated with TGFβ prior to inoculation into the arterial circulation
Procedure: (§4) FIGS. 3A-D. (A) LM2 cells and a clinically-derived pleural effusion sample (CN34.2A) were pretreated with TGFβ for 6 h. LM2 (2×10^5) and CN34.2A (4×10^5) cells were injected into the lateral tail vein and lung colonization was analyzed by in vivo bioluminescence imaging. (B) Bar graph represents 24 h time point measurements of the normalized photon flux from animals injected with either LM2 or CN34.2A cells. (C) Bone metastasis assays were performed by intracardiac injection of LM2 or BoM-1833 cells (3×10^4). Samples were pretreated with […] of TGFβ for 6 h and compared to an untreated control. (D) Bar graphs represent seven-day time point analysis of the normalized photon flux from the mouse hind limbs.
(§5) To investigate the selectivity of this lung metastasis-priming effect, we tested the effect of TGFβ pre-incubation on the establishment of bone metastases. […]
as §3

BoM-1833 cells = test: Bone metastasis assay, intracardiac injection of TGFβ-pretreated BoM-1833 cells; settings: BoM-1833 cells pre-incubated with TGFβ
Procedure: as §4, §5, §3

TGFβ: cytokine transforming growth factor beta; TGFβ1 (R&D Systems) used to treat cells for 3 or 6 h
lung colonizing activity (retention of cells in the lungs) (LM2 cells [1]; LM2 cells incubated with TGFβ for 6 h prior to tail vein inoculation, 24 h after inoculation, bioluminescence): significantly increased
increase of lung seeding activity (LM2 cells [1]; LM2 cells pre-treated with TGFβ 6 h, 24 h time point, normalized photon flux): three
increase of lung seeding activity (CN34.2A cells): five
ability to form bone metastases (LM2 cells [2]): did not increase
ability to form bone metastases (BoM-1833 cells): did not increase
early seeding of the bones (BoM-1833 cells; seven-day time point, hind limbs): no discernible effect

From US20110053804A1, “Gene Signatures for the Prognosis of Cancer” (SLOAN-KETTERING INSTITUTE FOR CANCER RESEARCH, priority 2008, published 2011)
